Laboratory results as given in US20040224844A1, “Use of hydroxyaromatic compounds as safeners” (Bayer CropScience GmbH, priority 2003, published 2004).

Legend:
Format in all cases: in vivo
[1] = system: Zea mays (corn), cv. 'Lorenzo'; experiment: Pre-emergence application of herbicide after seed dressing with safener; conditions: for Safener action as % damage reduction in crop plants: ZEAMA
Protocol: (§1) The number of crop plant seeds required for each application rate of safener was calculated. Sufficient seeds were weighed out into glass bottles having a screw-on lid. The volume of the glass bottles was approximately twice that of the seeds weighed out.
(§2) The safeners were formulated as 20 percent strength water-dispersible powders. These formulations were weighed out to give the required application rates (g of a.i./kg of seed). The samples were added to the seeds in the glass containers, and sufficient water to form a suitable seed dressing was then added. The glass bottles were closed and then mounted in an overhead shaker (which turns the bottles at moderate speed for a period of up to one hour) so that the seeds were uniformly covered with the seed dressing. The bottles were opened and the seeds were ready for use in pre-emergence or post-emergence experiments, as described below.
(§3) The seeds which had been treated with safeners and untreated seeds as controls were sown in sandy loam soil in round plastic pots of a diameter of 13 cm and covered with a layer of sandy loam of a thickness of about 1 cm. The herbicides in the form of liquid (for example emulsion concentrates) or dry (for example water-dispersible powders) formulations were diluted with deionized water to the required concentrations and applied to the surface of the soil with a spray bar using a water application rate of 300 liters per hectare. In the two experiments shown below (results see tables 2.2.1 and 2.2.2), the herbicide isoxaflutole was used as an aqueous suspension concentrate.
(§4) The pots were placed in a greenhouse under favorable growth conditions. Visual scoring of the herbicidal action was carried out four weeks after the herbicide application. Evaluation was carried out on a percentage basis by comparison with untreated control plants (0%=no noticeable effect compared with the untreated plant, 100%=treated plant dies).

[2] = system: Glycine max (soybean), cv. 'Lambert'; experiment: as above; conditions: for Safener action as % damage reduction in crop plants: GLXMA
Protocol: as §1, §2, §3, §4

[3] = system: Zea mays (corn), cv. 'Lorenzo'; experiment: Pre-emergence application of herbicide and safener by the tank mix method: crop damage
Protocol: (§5) Seeds of various crop plants and weed species were sown in sandy loam soil in plastic pots of a diameter of 13 cm and covered with a layer of sandy loam of a thickness of about 1 cm. Herbicides and safeners in the form of liquid (for example emulsion concentrates) or dry (for example water-dispersible powders) formulations were diluted with deionized water to the required concentration and applied to the surface of the soil with a spray bar using a water application rate of 300 liters per hectare. In the experiment shown below, the safeners were used as 20 percent strength water-dispersible powders and the herbicide isoxaflutole was used as an aqueous suspension concentrate (see table 1.1.1).
as §4

Chenopodium album = experiment: Pre-emergence application of herbicide and safener by the tank mix method: herbicidal action; conditions: four weeks
Protocol: as §5, §4

Setaria viridis [4] = experiment: as above; conditions: four weeks
Protocol: as §5, §4

[5] = system: Zea mays (corn), cv. 'Lorenzo'; experiment: Post-emergence application of herbicide and safener by the tank mix method: crop damage; conditions: for Safener action as % damage reduction in crop plants: ZEAMA
Excerpt: (§6) Seeds of various crop plants and weed species were sown in sandy loam soil in round plastic pots of a diameter of 13 cm and covered with a layer of sandy loam of a thickness of about 1 cm. The pots were placed in a greenhouse under favorable growth conditions for a period of about two to three weeks, allowing the plants to reach a growth stage of 2 to 4 leaves. The herbicides in the form of liquid (for example emulsion concentrates) or dry (for example water-dispersible powders) formulations were mixed with a standard additive (based on rapeseed oil methyl ester), diluted with deionized water to the required concentrations and applied to the green parts of the plants and the uncovered part of the soil surface with a spray bar using a water application rate of 300 liters per hectare. In the experiment shown below, safener and the herbicide foramsulfuron were in each case used as 20 percent strength water-dispersible powder (results see table 1.2.1).
as §4

Setaria viridis [6] = experiment: Post-emergence application of herbicide and safener by the tank mix method: herbicidal action; conditions: four weeks
Excerpt: as §6, §4

Amaranthus retroflexus = experiment: as above; conditions: four weeks
Excerpt: as §6, §4

[7] = system: Zea mays (corn), cv. 'Lorenzo'; experiment: Post-emergence application of herbicide after seed dressing with safener; conditions: for Safener action as % damage reduction in crop plants: ZEAMA
Protocol: as §1, §2
as §6, with “The seeds treated with safener” for “Seeds of various crop plants”, “untreated seeds” for “weed species”, “2.3.1).” for “1.2.1).”
as §4, with “base” for “basis”

[8] = herbicide H1 (isoxaflutole) 100 g of a.i./ha alone, no safener, pre-emergence
[9] = herbicide H2 (foramsulfuron) 40 g of a.i./ha alone, no safener, post-emergence
[10] = seed dressing with safener 1 g of a.i./kg of seed, herbicide H1 (isoxaflutole) 100 g of a.i./ha pre-emergence
[11] = seed dressing with safener 1 g of a.i./kg of seed, herbicide H1 (isoxaflutole) 100 g of a.i./ha pre-emergence, four weeks
[12] = safener 250 g of a.i./ha + herbicide H2 (foramsulfuron) 40 g of a.i./ha, post-emergence tank mix
[13] = seed dressing with safener 1 g of a.i./kg of seed, herbicide H2 (foramsulfuron) 40 g of a.i./ha post-emergence
[14] = safener 250 g of a.i./ha + herbicide H1 (isoxaflutole) 100 g of a.i./ha, pre-emergence tank mix

| SMILES | % damage in ZEAMA ([1]; in vivo) [%] | % damage in GLXMA ([2]; in vivo) [%] | % damage in ZEAMA ([7]; in vivo) [%] | Safener action as % damage reduction in crop plants [1, 10] [%] | Safener action as % damage reduction in crop plants [2, 10] [%] | Safener action as % damage reduction in crop plants [5, 12] [%] | Herbicidal action as % damage in SETVI (Setaria viridis [6]; [12]) [%] | Herbicidal action as % damage in AMARE (Amaranthus retroflexus; [12]) [%] | Safener action as % damage reduction in crop plants [7, 13] [%] | Safener action as % damage reduction in ZEAMA [3, 14] [%] | Herbicidal action in CHEAL (in %) (Chenopodium album; [14]) [%] | Herbicidal action in SETVI (in %) (Setaria viridis [4]; [14]) [%] | other results |
| --- | --- | --- | --- | --- | --- | --- | --- | --- | --- | --- | --- | --- | --- |
| CS(=O)(=O)c1cc(C(F)(F)F)ccc1C(=O)c1cnoc1C1CC1 [Herbicide H1, isoxaflutole, reference compound] | 20 | 78 |  |  |  |  |  |  |  |  |  |  | % damage in ZEAMA ([3]; in vivo): 25%; Herbicidal action in CHEAL (in %) (Chenopodium album; [8]): 94%; Herbicidal action in SETVI (in %) (Setaria viridis [4]; [8]): 96% |
| COc1cc(OC)nc(NC(=O)NS(=O)(=O)c2cc(NC=O)ccc2C(=O)N(C)C)n1 [Herbicide H2, foramsulfuron, reference compound] |  |  | 35 |  |  |  |  |  |  |  |  |  | % damage in ZEAMA ([5]; in vivo): 32%; Herbicidal action as % damage in SETVI (Setaria viridis [6]; [9]): 93%; Herbicidal action as % damage in AMARE (Amaranthus retroflexus; [9]): 90% |
| COc1cc(C(=O)O)cc(OC)c1O [Comp. 1272, 3,5-dimethoxy-4-hydroxybenzoic acid] |  |  |  | 50 | 55 | 53 | 95 | 92 | 79 | 52 | 94 | 98 | % damage in ZEAMA [1, 11]: 10%; % damage in GLXMA [2, 11]: 35%; % damage in ZEAMA ([5]; safener 250 g of a.i./ha + herbicide H2 (foramsulfuron) 40 g of a.i./ha, post-emergence tank mix, visual scoring four weeks after application): 15%; % damage in ZEAMA ([7]; seed dressing with safener 1 g of a.i./kg of seed, herbicide H2 (foramsulfuron) 40 g of a.i./ha post-emergence, four weeks): 7.5%; % damage in ZEAMA ([3]; safener 250 g of a.i./ha + herbicide H1 (isoxaflutole) 100 g of a.i./ha, pre-emergence tank mix, visual scoring four weeks after application): 12% |
| O=C(O)c1cc(O)cc(O)c1 [Comp. 1050, 3,5-dihydroxybenzoic acid] | 5 | 28 | 5 | 75 | 64 | 69 | 97 | 90 | 86 | 88 | 97 | 96 |  |
